Source: PubChem BioAssay AID1963869 (Molecular Pharmacology Branch, DTP, NCI, 2024)

Test system: KRAS patient-derived spheroids with HUVEC/MSC, viability
Assay: Anticancer human tumor 323965-272-R-J2-PDC patient-derived pancreatic carcinoma cell line growth inhibition [KRAS2]
Details: for IC50: curve of first compound; for viability, T/C: stronger effect = lower value
From the text: Multicellular complex tumor spheroid response to RAS pathway inhibitors in combination with a targeted agents in patient-derived cell lines with oncogenic KRAS variants from multiple cancer types
A high-throughput screen of multi-cell type tumor spheroids was designed to identify active combinations of targeted small molecules and KRAS pathway inhibitors. Complex spheroids include a stromal component modeled by human endothelial cells (HUVEC) and fibroblasts modeled by human mesenchymal stem cells (MSCs). The concentration ranges selected for each drug and investigational agent were based upon clinically achievable concentrations if the clinical Cmax of the agent was known.
Compounds. The drugs and investigational agents: BI-3406 (NSC825286), BAY-293 (NSC824723), batoprotafib (TNO155; NSC825523), sotorasib (AMG 510; NSC818433), MRTX1257 (NSC819558), elimusertib (BAY 1895344; NSC800525), molibresib (GSK525762; NSC774829), temuterkib (LY3214996; NSC803410), venetoclax (NSC766270), alisertib (NSC759677), olaparib (NSC753686), talazoparib (NSC767125), erdafitinib (NSC781556), ipatasertib (NSC767898), cabozantinib (NSC761068), nintedanib (NSC756659), abemaciclib (NSC768073), docetaxel (NSC628503), trametinib (NSC758246), and sapanisertib (NSC764658) were obtained from the National Cancer Institute (NCI) Developmental Therapeutics Program Chemical Repository. The FDA-approved anticancer drug set is available from the Developmental Therapeutics Program. […] The stock solutions were prepared in dimethyl sulfoxide (DMSO, Sigma-Aldrich, St. Louis, MO, cat. D2650) at 800-fold the tested concentration and stored at -70 degrees C prior to their use. All drugs and investigational agents were tested over a range starting from a high concentration at or near the clinical Cmax and decreasing in half-log increments. If the clinical Cmax for an agent had not been determined, the highest concentration tested was 10 microM.
Cell Culture. All cells were maintained in an incubator at 37 degrees C and 5% CO2 with 95% humidity. The PDC lines were cultured according to standard operating procedures established by the NCI PDMR (https://pdmr.cancer.gov/sops/default.htm). Briefly, all PDCs were thawed and cultured in Matrigel-coated flasks prepared with a working solution of 1X Ham's F-12 nutrient mix, without supplementation (Invitrogen, Waltham, MA, cat. 11765054), 100 U/mL penicillin-streptomycin (Invitrogen, cat. 15140122), and 2.5% Matrigel (Corning Inc., Corning, NY, cat. 354248) for the first three passages. All PDCs were cultured in complete DMEM/F-12 media containing advanced DMEM/F-12 (Invitrogen, cat. 12634028), 4.9% defined fetal bovine serum, heat inactivated (HyClone Laboratories Inc., Logan, UT, cat. SH30070.03HI), 389 ng/mL hydrocortisone (Sigma-Aldrich, cat. H4001), 9.7 ng/mL human EGF recombinant protein (Invitrogen, cat. PHG0313), 23.4 microg/mL adenine (Sigma-Aldrich, cat. A2786), 97.3 U/mL penicillin-streptomycin (Invitrogen, cat. 15140122), 1.9 mM L-glutamine (Invitrogen, cat. 25030081), and 9.7 microM Y-27632 dihydrochloride (Tocris Bioscience, Bristol, United Kingdom, cat. 1254). The PDCs were cultured in complete DMEM/F12 media without 9.7 microM Y-27632 dihydrochloride for at least two passages prior to the screen. The established cell line HOP-62 was cultured in RPMI 1640 medium, HEPES (Invitrogen, cat. 22400105) with 10% defined fetal bovine serum (HyClone Laboratories Inc., cat. SH30070.03) and 2 mM L-glutamine (Invitrogen, cat. 25030081). The pooled donor HUVEC were cultured in endothelial cell growth medium 2 (PromoCell, Heidelberg, Germany, cat. C-22011) and the hMSC were cultured in mesenchymal stem cell growth medium 2 (PromoCell, cat. C-28009). For all experiments, HUVEC and hMSC were used at passages </=5, while the malignant cell lines were used at passages </=15. […]

[1] = second compound 0.1 µM, first compound 0.0316 µM
[2] = second compound 0.1 µM, first compound 0.1 µM
[3] = second compound 0.316 µM, first compound 0.0316 µM
[4] = second compound 0.316 µM, first compound 0.1 µM
[5] = second compound 1 µM, first compound 0.0316 µM
[6] = second compound 1 µM, first compound 0.1 µM
[7] = second compound 3.16 µM, first compound 0.0316 µM
[8] = second compound 3.16 µM, first compound 0.1 µM
[9] = second compound 10 µM, first compound 0.0316 µM
[10] = second compound 10 µM, first compound 0.1 µM
[11] = second compound 0.1 µM, first compound 0.316 µM
[12] = second compound 0.1 µM, first compound 1 µM
[13] = second compound 0.1 µM, first compound 3.16 µM
[14] = second compound 0.1 µM, first compound 10 µM
[15] = second compound 0.316 µM, first compound 0.316 µM
[16] = second compound 0.316 µM, first compound 1 µM
[17] = second compound 0.316 µM, first compound 3.16 µM
[18] = second compound 0.316 µM, first compound 10 µM
[19] = second compound 1 µM, first compound 0.316 µM
[20] = second compound 1 µM, first compound 1 µM
[21] = second compound 1 µM, first compound 3.16 µM
[22] = second compound 1 µM, first compound 10 µM
[23] = second compound 3.16 µM, first compound 0.316 µM
[24] = second compound 3.16 µM, first compound 1 µM
[25] = second compound 3.16 µM, first compound 3.16 µM
[26] = second compound 3.16 µM, first compound 10 µM
[27] = second compound 10 µM, first compound 0.316 µM
[28] = second compound 10 µM, first compound 1 µM
[29] = second compound 10 µM, first compound 3.16 µM
[30] = second compound 10 µM, first compound 10 µM
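Further: spheroids exposed to agents for 7 days.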
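Wherever viability, T/C is given: 100% = DMSO vehicle control viability.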

SMILES	IC50 (second compound 0.1 µM) [nM]	IC50 (second compound 0.316 µM) [nM]	IC50 (second compound 1 µM) [nM]	IC50 (second compound 3.16 µM) [nM]	IC50 (second compound 10 µM) [nM]	viability, T/C [1] [%]	viability, T/C [2] [%]	viability, T/C [3] [%]	viability, T/C [4] [%]	viability, T/C [5] [%]	viability, T/C [6] [%]	viability, T/C [7] [%]	viability, T/C [8] [%]	viability, T/C [9] [%]	viability, T/C [10] [%]	viability, T/C [11] [%]	viability, T/C [12] [%]	viability, T/C [13] [%]	viability, T/C [14] [%]	viability, T/C [15] [%]	further results
CC(C)n1nc(-c2ccc3oc(N)nc3c2)c2c(N)ncnc21 + C=CC(=O)N1CCN(c2nc(=O)n(-c3c(C)ccnc3C(C)C)c3nc(-c4c(O)cccc4F)c(F)cc23)C(C)C1	0.446	0.394	0.514	0.381	< 0.316	15.9	12.3	14.8	12.5	15.6	13.3	13.7	12.3	12.4	12.7	–	–	–	–	–	viability, T/C (second compound 0.1 µM, first compound 0.000316 µM): 53.7%; viability, T/C (second compound 0.1 µM, first compound 0.001 µM): 41.4%; viability, T/C (second compound 0.1 µM, first compound 0.00316 µM): 28.3%; viability, T/C (second compound 0.1 µM, first compound 0.01 µM): 19.1%; viability, T/C (second compound 0.316 µM, first compound 0.000316 µM): 53.2%; viability, T/C (second compound 0.316 µM, first compound 0.001 µM): 37.8%; viability, T/C (second compound 0.316 µM, first compound 0.00316 µM): 30.5%; viability, T/C (second compound 0.316 µM, first compound 0.01 µM): 22.1%; viability, T/C (second compound 1 µM, first compound 0.000316 µM): 56.9%; viability, T/C (second compound 1 µM, first compound 0.001 µM): 41.1%; viability, T/C (second compound 1 µM, first compound 0.00316 µM): 28.6%; viability, T/C (second compound 1 µM, first compound 0.01 µM): 19.3%; viability, T/C (second compound 3.16 µM, first compound 0.000316 µM): 51.6%; viability, T/C (second compound 3.16 µM, first compound 0.001 µM): 41.9%; viability, T/C (second compound 3.16 µM, first compound 0.00316 µM): 29%; viability, T/C (second compound 3.16 µM, first compound 0.01 µM): 17.5%; viability, T/C (second compound 10 µM, first compound 0.000316 µM): 48.8%; viability, T/C (second compound 10 µM, first compound 0.001 µM): 36.3%; viability, T/C (second compound 10 µM, first compound 0.00316 µM): 24.1%; viability, T/C (second compound 10 µM, first compound 0.01 µM): 19.4%
CC1(C)CCC(CN2CCN(c3ccc(C(=O)NS(=O)(=O)c4ccc(NCC5CCOCC5)c([N+](=O)[O-])c4)c(Oc4cnc5[nH]ccc5c4)c3)CC2)=C(c2ccc(Cl)cc2)C1 + C=CC(=O)N1CCN(c2nc(=O)n(-c3c(C)ccnc3C(C)C)c3nc(-c4c(O)cccc4F)c(F)cc23)C(C)C1	1100	1320	1260	1210	81.8	59.2	59.6	64.6	58.1	61.1	61.9	62	62.3	61	37.6	63.3	52.7	17	4.37	56.3	viability, T/C [16]: 60.4%; viability, T/C [17]: 18.8%; viability, T/C [18]: 5.39%; viability, T/C [19]: 60.3%; viability, T/C [20]: 59.5%; viability, T/C [21]: 12%; viability, T/C [22]: 2.97%; viability, T/C [23]: 57.8%; viability, T/C [24]: 56.9%; viability, T/C [25]: 15.8%; viability, T/C [26]: 5.2%; viability, T/C [27]: 43.4%; viability, T/C [28]: 36.3%; viability, T/C [29]: 15.8%; viability, T/C [30]: 2.88%
COc1cc(Nc2ncc3c(n2)-c2ccc(Cl)cc2C(c2c(F)cccc2OC)=NC3)ccc1C(=O)O + C=CC(=O)N1CCN(c2nc(=O)n(-c3c(C)ccnc3C(C)C)c3nc(-c4c(O)cccc4F)c(F)cc23)C(C)C1	< 31.6	< 31.6	< 31.6	< 31.6	< 31.6	53.5	36.2	54.1	35.3	53	34	46.5	27.5	27.3	18.9	26.4	31.7	43.3	46.3	28.8	viability, T/C [16]: 30.1%; viability, T/C [17]: 39.8%; viability, T/C [18]: 51.6%; viability, T/C [19]: 24.2%; viability, T/C [20]: 33.2%; viability, T/C [21]: 47.7%; viability, T/C [22]: 51.5%; viability, T/C [23]: 22.2%; viability, T/C [24]: 34.1%; viability, T/C [25]: 34.7%; viability, T/C [26]: 38.4%; viability, T/C [27]: 20.2%; viability, T/C [28]: 23%; viability, T/C [29]: 23.7%; viability, T/C [30]: 27.1%
COc1cc2nccc(Oc3ccc(NC(=O)C4(C(=O)Nc5ccc(F)cc5)CC4)cc3)c2cc1OC + C=CC(=O)N1CCN(c2nc(=O)n(-c3c(C)ccnc3C(C)C)c3nc(-c4c(O)cccc4F)c(F)cc23)C(C)C1	> 10000	> 10000	> 10000	> 10000	1190	54.7	56	52.8	55.1	54.5	52.3	57.1	56.9	47.6	54.2	58.8	62.6	64.2	57.8	58.1	viability, T/C [16]: 61.8%; viability, T/C [17]: 62.5%; viability, T/C [18]: 59.8%; viability, T/C [19]: 59.9%; viability, T/C [20]: 61.7%; viability, T/C [21]: 63.8%; viability, T/C [22]: 61.5%; viability, T/C [23]: 56.2%; viability, T/C [24]: 61.2%; viability, T/C [25]: 58.6%; viability, T/C [26]: 55.6%; viability, T/C [27]: 45.5%; viability, T/C [28]: 61.9%; viability, T/C [29]: 29.4%; viability, T/C [30]: 44.2%
